Values of other authors, collected in US7514592B2, “Inducible heart attack animal model” (Massachusetts Institute of Technology, priority 2004, dated 2009).

Test system: SR-BI knockout females
Conditions: homozygous SR-BI knockout dams (infertile); administered during the breeding protocol

CC(C)(Sc1cc(C(C)(C)C)c(O)c(C(C)(C)C)c1)Sc1cc(C(C)(C)C)c(O)c(C(C)(C)C)c1 [probucol]
fertility in SR-BI knockout females: restore fertility
